The values below come from US11089783B2, “2-(het)aryl-substituted fused heterocycle derivatives as pesticides” (Bayer Aktiengesellschaft, priority 2017, dated 2021).

Molecules are shown by their SMILES.

Type in all cases: in vivo
Assay [1] has as its system Myzus persicae. Nature of the assay: Myzus persicae oral test. The conditions noted are these: 120 h, after 5 days, read-out: efficacy. How it is done:
[table] To produce a suitable active ingredient formulation, 1 part by weight of active ingredient is dissolved with the stated parts by weight of solvent and made up to the desired concentration with water. 50 μl of the active ingredient preparation are transferred into microtitre plates and made up to a final volume of 200 μl with 150 μl of IPL41 insect medium (33%+15% sugar). Subsequently, the plates are sealed with parafilm, which a mixed population of green peach aphids (Myzus persicae) within a second microtitre plate is able to puncture and imbibe the solution. After 5 days, the efficacy in % is determined. 100% means that all the aphids have been killed; 0% means that no aphids have been killed.

A further assay deals with Lucilia cuprina. The assay can be described thus: Lucilia cuprina test. The following applies: 48 h, L1 larvae, after 2 days, read-out: efficacy (kill). Here is the method:
Solvent: dimethyl sulfoxide To produce a suitable active ingredient formulation, 10 mg of active ingredient are mixed with 0.5 ml of dimethyl sulfoxide, and the concentrate is diluted with water to the desired concentration. About 20 L1 larvae of the Australian sheep blowfly (Lucilia cuprina) are transferred into a test vessel containing minced horsemeat and the active ingredient formulation of the desired concentration. After 2 days, the kill in % is determined. 100% means that all the larvae have been killed; 0% means that no larvae have been killed.

Assay [2] deals with Phaedon cochleariae. The assay can be described thus: Phaedon cochleariae spray test (PHAECO S), cabbage leaves. The following applies: 20 ppm, 7 dat. How it is done: (§1) [table] To produce an appropriate active ingredient formulation, 1 part by weight of active ingredient is dissolved with the specified parts by weight of solvent and made up with water containing an emulsifier concentration of 1000 ppm until the desired concentration is attained. To produce further test concentrations, the mixture is diluted with emulsifier-containing water. If addition of ammonium salts or/and penetrants is required, these are each added to the preparation solution in a concentration of 1000 ppm. Cabbage leaves (Brassica oleracea) are sprayed with an active ingredient formulation of the desired concentration and populated with larvae of the mustard beetle (Phaedon cochleariae). After the desired time, the kill in % is determined. 100% means that all beetle larvae have been killed; 0% means that no beetle larvae have been killed.

The test system of a further assay is Meloidogyne incognita. Nature of the assay: Meloidogyne incognita test (MELGIN). The following applies: 20 ppm, 14 days (14 dat). How it is done: [table] To produce a suitable active ingredient formulation, 1 part by weight of active ingredient is mixed with the stated amount of solvent and the concentrate is diluted to the desired concentration with water. Vessels are filled with sand, active ingredient solution, an egg/larvae suspension of the southern root-knot nematode (Meloidogyne incognita) and lettuce seeds. The lettuce seeds germinate and the plants develop. The galls develop on the roots. After 14 days, the nematicidal efficacy in % is determined by the formation of galls. 100% means that no galls were found; 0% means that the number of galls on the treated plants corresponds to the untreated control. [table] To produce an appropriate active ingredient formulation, 1 part by weight of active ingredient is mixed with the specified amount of solvent and the concentrate is diluted to the desired concentration with water. Vessels are filled with sand, active ingredient solution, an egg/larvae suspension of the southern root-knot nematode (Meloidogyne incognita) and lettuce seeds. The lettuce seeds germinate and the plants develop. The root-knots develop on the roots. After the desired time, the nematicidal effect is determined from the formation of root-knots in %. 100% means that no root-knots were found; 0% means that the number of root-knots on the treated plants corresponds to that on the untreated control.

Another assay relates to Nezara viridula. Nature of the assay: Nezara viridula spray test (NEZARA / NEZAVI). The conditions noted are these: 4 dat; for % efficacy: 500 g/ha. How it is done:
as §1, with “ppm. Barley plants (Hordeum vulgare) infected with larvae of the southern green shield bug (Nezara viridula)” for “ppm. Cabbage leaves (Brassica oleracea)”, “desired concentration.” for “desired concentration and populated with larvae of the mustard beetle (Phaedon cochleariae).”, “the efficacy” for “the kill”, “all bugs” for “all beetle larvae”, “no bugs” for “no beetle larvae”

Assay [3] concerns Phaedon cochleariae. The assay can be described thus: Phaedon cochleariae spray test (PHAECO), Chinese cabbage leaf discs. The following applies: for % efficacy / percent efficacy (larval mortality) at a fixed application rate at 20 g/ha: PHAECO, 7 dat; for pest or weed control at 100 g/ha / percent efficacy (larval mortality) at a fixed application rate at 20 g/ha: Phaedon cochleariae, foliar, 168 h; for pest or weed control at 100 g/ha: 7 days (7 dat), read-out: efficacy. Here is the method:
(§2) [table] To produce a suitable active ingredient formulation, 1 part by weight of active ingredient is dissolved with the specified parts by weight of solvent and made up to the desired concentration with water containing an emulsifier concentration of 1000 ppm. To produce further test concentrations, the formulation is diluted with emulsifier-containing water. Discs of Chinese cabbage leaves (Brassica pekinensis) are sprayed with an active ingredient formulation of the desired concentration and, after drying, populated with larvae of the mustard beetle (Phaedon cochleariae). After 7 days, the efficacy in % is determined. 100% means that all the beetle larvae have been killed; 0% means that no beetle larvae have been killed. [table] To produce an appropriate active ingredient formulation, 1 part by weight of active ingredient is dissolved with the stated parts by weight of solvent and made up with water containing an emulsifier concentration of 1000 ppm until the desired concentration is attained. For production of further test concentrations, the mixture is diluted with emulsifier-containing water. Discs of chinese cabbage leaves (Brassica pekinensis) are sprayed with an active ingredient formulation of the desired concentration and, after drying, populated with larvae of the mustard beetle (Phaedon cochleariae). After the desired time, the efficacy in % is determined. 100% means that all beetle larvae have been killed; 0% means that no beetle larvae have been killed.

Assay [4] deals with Myzus persicae. Nature of the assay: Myzus persicae spray test (MYZUPE), Chinese cabbage leaf discs. The following applies: Myzus persicae, foliar, 120 h; for pest or weed control at 100 g/ha / pest or weed control at 20 g/ha: 5 days (5 dat), read-out: efficacy. How it is done: as §2, with “pekinensis) infested by all stages of the green peach aphid (Myzus persicae)” for “pekinensis)”, “concentration.” for “concentration and, after drying, populated with larvae of the mustard beetle (Phaedon cochleariae).”, “5” for “7”, “aphids” for “beetle larvae”

The next assay concerns Nilaparvata lugens. Nature of the assay: Nilaparvata lugens spray test (NILALU). The following applies: 4 dat; for % efficacy / Emax at 20 g/ha: 20 g/ha. How it is done: [table] To produce an appropriate active ingredient formulation, 1 part by weight of active ingredient is dissolved with the specified parts by weight of solvent and made up with water containing an emulsifier concentration of 1000 ppm until the desired concentration is attained. To produce further test concentrations, the mixture is diluted with emulsifier-containing water. If addition of ammonium salts or/and penetrants is required, these are each added to the preparation solution in a concentration of 1000 ppm. Rice plants (Oryza sativa) are sprayed with an active ingredient formulation of the desired concentration and then populated with larvae of the brown planthopper (Nilaparvata lugens). After the desired time, the efficacy in % is determined. 100% means that all planthoppers have been killed; 0% means that no planthoppers have been killed.

The test system of a further assay is Aphis gossypii. Nature of the assay: Aphis gossypii spray test (APHIGO), cotton plants. The following applies: Aphis gossypii, 144 h, 6 dat, read-out: % efficacy. Here is the method: as §1, with “Cotton plants (Gossypium hirsutum) severely infested by the cotton aphid (Aphis gossypii)” for “Cabbage leaves (Brassica oleracea)”, “concentration.” for “concentration and populated with larvae of the mustard beetle (Phaedon cochleariae).”, “aphids” for “beetle larvae”

For assay [5], the system named is Myzus persicae. The assay can be described thus: Myzus persicae spray test (MYZUPE S), bell pepper plants. The conditions noted are these: 144 h, 6 dat, read-out: % efficacy. How it is done:
[table] To produce an appropriate active ingredient formulation, 1 part by weight of active ingredient is dissolved with the specified parts by weight of solvent and made up with water containing an emulsifier concentration of 1000 ppm until the desired concentration is attained. To produce further test concentrations, the mixture is diluted with emulsifier-containing water. If addition of ammonium salts or/and penetrants is required, these are each added to the preparation solution in a concentration of 1000 ppm. Bell pepper plants (Capsicum annuum) severely infested by the green peach aphid (Myzus persicae) are treated by spraying with the active ingredient formulation in the desired concentration. After the desired time, the kill in % is determined. 100% means that all the animals have been killed; 0% means that no animals have been killed.

The subject of a further assay is Tetranychus urticae. The assay can be described thus: Tetranychus urticae spray test, OP-resistant (TETRUR). The conditions noted are these: Tetranychus urticae, 144 h; TETRUR, 100 g/ha, 6 dat; read-out: % efficacy. How it is done: [table] To produce a suitable active ingredient formulation, 1 part by weight of active ingredient is dissolved with the specified parts by weight of solvent and made up to the desired concentration with water containing an emulsifier concentration of 1000 ppm. To produce further test concentrations, the formulation is diluted with emulsifier-containing water. Discs of bean leaves (Phaseolus vulgaris) infested with all stages of the greenhouse red spider mite (Tetranychus urticae) are sprayed with an active ingredient formulation of the desired concentration. After 6 days, the efficacy in % is determined. 100% means that all the spider mites have been killed; 0% means that no spider mites have been killed.

The mark [6] stands for this setting: Nilaparvata lugens, 96 h, read-out: % efficacy.

In the case of `CCS(=O)(=O)c1ccc(C(N)=O)nc1-c1nc2cc(C(F)(F)C(F)(F)F)nnc2n1C` [Example I-02], in the assay on Myzus persicae [1], the pest or weed control at 0.8 ppm came to 100%. Also, the pest or weed control at 100 ppm with Lucilia cuprina worked out at 100%. Besides, the “% efficacy” value in the assay on Phaedon cochleariae [2] was determined as 100%; in the assay with Nezara viridula, 90%; with Phaedon cochleariae [3] (0.8 g/ha), 83%; in the assay on Phaedon cochleariae [3] (4 g/ha), 100%; in the assay with Nilaparvata lugens, 90%. Also, the “efficacy (nematicidal, gall formation)” value in the assay on Meloidogyne incognita was 90%. Moreover, the pest or weed control at 100 g/ha in the assay on Phaedon cochleariae [3] and with Myzus persicae [4] was 100% throughout.
Take `CCS(=O)(=O)c1ccc(C(=O)NC2CC2)nc1-c1nc2cc(C(F)(F)C(F)(F)F)nnc2n1C` [Example I-03]: the pest or weed control at 0.8 ppm in the assay on Myzus persicae [1] is 100%. Moreover, the pest or weed control at 100 ppm in the assay with Lucilia cuprina is 100%. Also, in the assay with Phaedon cochleariae [3], the pest or weed control at 100 g/ha stood at 100% and the percent efficacy (larval mortality) at a fixed application rate at 20 g/ha was found to be 100%. The Emax at 4 ppm with Aphis gossypii is 95%. Besides, in the assay on Myzus persicae [4], the pest or weed control at 20 g/ha came to 90% and the pest or weed control at 100 g/ha was 100%. In the assay on Nilaparvata lugens (setting [6]), the Emax at 20 g/ha is 80% and the Emax at 100 g/ha was found to be 100%. The Emax at 4 ppm in the assay with Myzus persicae [5] turned out to be 100%.
On to `CCS(=O)(=O)c1ccc(C(=O)N(C)C)nc1-c1nc2cc(C(F)(F)C(F)(F)F)nnc2n1C` [Example I-05], for which the pest or weed control at 0.8 ppm in the assay on Myzus persicae [1] is 100%. The pest or weed control at 100 ppm with Lucilia cuprina stood at 100%. Moreover, the pest or weed control at 100 g/ha in the assay on Phaedon cochleariae [3] is 100%; in the assay on Myzus persicae [4], 90%. The Emax at 0.8 ppm stood at 65% with Aphis gossypii (0.8 ppm) and 95% in the assay on Myzus persicae [5] (0.8 ppm). Moreover, the pest or weed control at 20 g/ha with Myzus persicae [4] is 90%.
Take `CCS(=O)(=O)c1ccc(C(N)=O)nc1-c1nc2cc(C(F)(F)C(F)(F)F)nnc2n1C` [drawing 40, reference compound]: the “% efficacy” value with Phaedon cochleariae [2] is given as 0%; in the assay on Nezara viridula, 0%; in the assay with Phaedon cochleariae [3] (0.8 g/ha), 0%; in the assay with Phaedon cochleariae [3] (4 g/ha), 33%; with Nilaparvata lugens it was 50%. In addition, the “efficacy (nematicidal, gall formation)” value in the assay with Meloidogyne incognita is given as 0%.
On to `CCS(=O)(=O)c1ccc(C(=O)NC2CC2)nc1-c1nc2cc(C(F)(F)F)nnc2n1C` [reference compound], for which, in the assay on Phaedon cochleariae [3], the pest or weed control at 100 g/ha is 33% and the percent efficacy (larval mortality) at a fixed application rate at 20 g/ha stood at 33%. Besides, the Emax at 4 ppm in the assay with Aphis gossypii is 0%. The pest or weed control at 20 g/ha with Myzus persicae [4] amounted to 0%. Also, in the assay with Nilaparvata lugens (setting [6]), the Emax at 20 g/ha came to 0% and the Emax at 100 g/ha is 0%. Moreover, in the assay with Myzus persicae [5], the Emax at 4 ppm worked out at 0%.
Take `CCS(=O)(=O)c1ccc(NC(=O)N(C)C)nc1-c1nc2cc(C(F)(F)F)nnc2n1C` [reference compound]: the Emax at 20 ppm with Phaedon cochleariae [2] (Phaedon cochleariae, 168 h, read-out: % efficacy) is 20%. The Emax at 100 g/ha in the assay on Tetranychus urticae was 0%. Further, the Emax at 4 g/ha in the assay with Nezara viridula (Nezara viridula, 96 h, 4 g/ha, read-out: % efficacy) was determined as 0%; in the assay on Myzus persicae [4] (MYZUPE, 4 g/ha, 5 dat, read-out: % efficacy), 0%; in the assay on Nilaparvata lugens (Nilaparvata lugens, 96 h, 4 g/ha, read-out: % efficacy), 0%. Moreover, the Emax at 4 ppm in the assay with Aphis gossypii stood at 15%.
